Data from the NIST ThermoML archive (doi:10.1021/acs.jced.7b00995).

What was measured:
[1] = 313.15 K, Liquid, Vibrating tube method
[2] = xn = mol fraction of the nth substance listed; settings: Liquid, Vibrating tube method

CCCCCCCCCCCCCCC [pentadecane]
[1]
Settings | mass density [kg/m3]
100 kPa | 752.2
6910 kPa | 757.8
20790 kPa | 766.9
34670 kPa | 776.1
55490 kPa | 787.5
76930 kPa | 797.3

CCCCCCCCCCCCCCC [pentadecane] + O=C=O
mass density [kg/m3], [2]
Settings | x2 = 0.376 | x2 = 0.562 | x2 = 0.757
313.15 K, 6.36 kPa | – | 779.4 | –
313.15 K, 6.91 kPa | 770 | – | –
313.15 K, 8.8 kPa | – | – | 798.3
313.15 K, 11.29 kPa | – | – | 804.2
313.15 K, 13.85 kPa | – | – | 810.2
313.15 K, 20.79 kPa | 784 | 796.8 | 828.1
313.15 K, 34.67 kPa | 795.8 | 808.8 | 843.2
313.15 K, 55.49 kPa | 809 | 829 | 867.8
313.15 K, 76.31 kPa | 825.4 | 841.5 | 885.9
363.15 K, 6.94 kPa | 725.3 | – | –
363.15 K, 10.73 kPa | – | 730.3 | –
363.15 K, 17.13 kPa | – | – | 738.8
363.15 K, 20.82 kPa | 744.5 | 745.5 | 749.2
363.15 K, 34.7 kPa | 754.3 | 768.8 | 780
363.15 K, 55.52 kPa | 775.6 | 784.7 | 812.3
363.15 K, 76.34 kPa | 787 | 800.8 | 831.7
410.15 K, 13.9 kPa | – | 686.5 | –
410.15 K, 13.91 kPa | 693.8 | – | –
410.15 K, 20.85 kPa | 702.6 | 701.8 | –
410.15 K, 21.95 kPa | – | – | 682.7
410.15 K, 27.79 kPa | – | – | 702
410.15 K, 34.73 kPa | 723.3 | 724.9 | 723.5
410.15 K, 55.55 kPa | 742.3 | 749.5 | 763.8
410.15 K, 76.37 kPa | 757.3 | 769.3 | 796.1
